Data reported in the supplement of paper PMC10627819.

Experiments:
S. pneumoniae D39V [1] = assay: Bliss interaction score (quartile over a dose matrix) (fitness difference); higher = more antagonism (negative = synergy)
In short: (§1)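 Quartiles of the Bliss score were taken over technical, biological and donor/recipient replicates. That score is observed fitness minus the product of the single-drug fitness values, which were inferred from combination data. Fitness itself is OD595 at entry into stationary phase divided by the plate's robust no-drug mean, with a cap at 1.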

S. aureus DSM 20231 = assay: as above
In short: as §1

S. aureus Newman = assay: as above
In short: as §1

B. subtilis 168 [2] = assay: as above
In short: as §1

B. subtilis 168 [3] = assay: fitness (endpoint OD595 vs no drug) (fraction); higher = more growth; conditions: main component drawn
In short: (§2)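 Fitness was defined as the optical density at the transition into stationary phase relative to the robust mean of no-drug control wells. Values were capped at 1. Cultures were started at OD595 0.01 in 384-well plates (30 µl, or 55 µl for S. pneumoniae) in TSB, LB Lennox or CY at 37 °C. OD595 was recorded every 30 min over 14 h, with the first reading subtracted as background.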

S. pneumoniae D39V [4] = assay: as above
In short: as §2
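For Bliss interaction score (quartile over a dose matrix) in this document: first quartile when negative (synergy) and third quartile when positive (antagonism).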

CNC(C)C1CCC(N)C(OC2C(N)CC(N)C(OC3OCC(C)(O)C(NC)C3O)C2O)O1 (centres undefined) [Gentamicin] + COc1cc(Cc2cnc(N)nc2N)cc(OC)c1OC [Trimethoprim]
main component drawn
Conditions	Bliss interaction score
B. subtilis 168 [2]	-0.201
S. aureus DSM 20231	-0.0371
S. aureus Newman	0.0637
S. pneumoniae D39V [1]	-0.193

fitness, B. subtilis 168 [3], one replicate
Conditions	partner 0.1 µg/mL	partner 0.2 µg/mL	partner 0.4 µg/mL	partner 1 µg/mL	partner 2 µg/mL
first compound 0.0625 µg/mL	0.953	0.787	0.539	0.0449	0.0512
first compound 0.125 µg/mL	0.716	0.294	0.0552	0.0304	0.0461
first compound 0.25 µg/mL	0.0356	0.0576	0.0438	0.0435	0.0503

fitness, B. subtilis 168 [3]
Conditions	first compound 0.0625 µg/mL	first compound 0.125 µg/mL	first compound 0.25 µg/mL
partner 0.125 µg/mL	0.661	0.548	0.0923
partner 0.25 µg/mL	0.53	–	0.0847
partner 0.5 µg/mL	–	–	0.041

Cn1c2cccc(=O)c-2nc2ccccc21 [Pyocyanin] + CO[C@H]1/C=C/O[C@@]2(C)Oc3c(C)c(O)c4c(O)c(c(/C=N/N5CCN(C)CC5)c(O)c4c3C2=O)NC(=O)/C(C)=C\C=C\[C@H](C)[C@H](O)[C@@H](C)[C@@H](O)[C@@H](C)[C@H](OC(C)=O)[C@@H]1C [Rifampicin]
Conditions	Bliss interaction score
B. subtilis 168 [2]	-0.0612
S. aureus DSM 20231	0.031
S. aureus Newman	0.0295
S. pneumoniae D39V [1]	0.0928

fitness, S. pneumoniae D39V [4], one replicate
Conditions	first compound 0.325 µg/mL	first compound 0.65 µg/mL	first compound 1.3 µg/mL
partner 0.025 µg/mL	0.917	0.942	0.765
partner 0.2 µg/mL	–	–	0.021

fitness, S. pneumoniae D39V [4]
Conditions	first compound 0.325 µg/mL	first compound 0.65 µg/mL
partner 0.05 µg/mL	–	0.885
partner 0.2 µg/mL	0.0407	0.178

Clc1ccc(COC(Cn2ccnc2)c2ccc(Cl)cc2Cl)c(Cl)c1 (centres undefined) [Miconazole] + CN(C)c1cc(NC(=O)CNC(C)(C)C)c(O)c2c1C[C@H]1C[C@H]3[C@H](N(C)C)C(O)=C(C(N)=O)C(=O)[C@@]3(O)C(O)=C1C2=O [Tigecycline]
Conditions	Bliss interaction score
B. subtilis 168 [2]	0.0621
S. aureus DSM 20231	0.0455
S. aureus Newman	0.0412
S. pneumoniae D39V [1]	0.0957

fitness, S. pneumoniae D39V [4]
Conditions	first compound 1.073 µg/mL	first compound 1.25 µg/mL	first compound 2.145 µg/mL	first compound 2.5 µg/mL	first compound 4.29 µg/mL	first compound 5 µg/mL
partner 0.65 µg/mL	0.992	0.974	0.998	0.982	≥ 1	≥ 1
partner 1.3 µg/mL	≥ 1	0.997	0.992	0.991	≥ 1	≥ 1
partner 2.6 µg/mL	0.999	0.982	≥ 1	0.993	0.998	0.927

Cc1onc(-c2ccccc2)c1C(=O)N[C@@H]1C(=O)N2[C@@H]1SC(C)(C)[C@@H]2C(=O)O [Oxacillin] + CO[C@H]1/C=C/O[C@@]2(C)Oc3c(C)c(O)c4c(O)c(c(/C=N/N5CCN(C)CC5)c(O)c4c3C2=O)NC(=O)/C(C)=C\C=C\[C@H](C)[C@H](O)[C@@H](C)[C@@H](O)[C@@H](C)[C@H](OC(C)=O)[C@@H]1C [Rifampicin]
Conditions	Bliss interaction score
B. subtilis 168 [2]	0.0578
S. aureus DSM 20231	0.0464
S. aureus Newman	0.0684
S. pneumoniae D39V [1]	-0.0851

S. pneumoniae D39V [4], partner 0.025 µg/mL, one replicate
Conditions	fitness
first compound 0.01 µg/mL	0.891
first compound 0.02 µg/mL	0.801
first compound 0.04 µg/mL	0.407

S. pneumoniae D39V [4], partner 0.2 µg/mL
Conditions	fitness
first compound 0.01 µg/mL	0.144
first compound 0.02 µg/mL	0.0871
first compound 0.04 µg/mL	0.143

Clc1ccc(COC(Cn2ccnc2)c2ccc(Cl)cc2Cl)c(Cl)c1 (centres undefined) [Miconazole] + CO[C@H]1/C=C/O[C@@]2(C)Oc3c(C)c(O)c4c(O)c(c(/C=N/N5CCN(C)CC5)c(O)c4c3C2=O)NC(=O)/C(C)=C\C=C\[C@H](C)[C@H](O)[C@@H](C)[C@@H](O)[C@@H](C)[C@H](OC(C)=O)[C@@H]1C [Rifampicin]
Conditions	Bliss interaction score
B. subtilis 168 [2]	0.0476
S. aureus DSM 20231	0.035
S. aureus Newman	0.0801
S. pneumoniae D39V [1]	0.169

fitness, S. pneumoniae D39V [4]
Conditions	first compound 1.073 µg/mL	first compound 1.25 µg/mL	first compound 2.145 µg/mL	first compound 2.5 µg/mL	first compound 4.29 µg/mL	first compound 5 µg/mL
partner 0.05 µg/mL	0.974	0.774	1	0.806	0.998	0.779
partner 0.1 µg/mL	–	0.411	–	0.41	0.776	–
partner 0.2 µg/mL	0.363	–	0.37	–	0.477	–

fitness, S. pneumoniae D39V [4], one replicate
Conditions	first compound 1.25 µg/mL	first compound 2.5 µg/mL	first compound 5 µg/mL
partner 0.025 µg/mL	0.856	0.861	0.853
partner 0.2 µg/mL	0	0	0

Clc1ccc(COC(Cn2ccnc2)c2ccc(Cl)cc2Cl)c(Cl)c1 (centres undefined) [Miconazole] + COc1ccc(C[C@H](N)C(=O)N[C@H]2[C@@H](O)[C@H](n3cnc4c(N(C)C)ncnc43)O[C@@H]2CO)cc1 [Puromycin]
Conditions	Bliss interaction score
B. subtilis 168 [2]	0.0522
S. aureus DSM 20231	0.0532
S. aureus Newman	0.0603
S. pneumoniae D39V [1]	0.124

fitness, S. pneumoniae D39V [4]
Conditions	first compound 1.073 µg/mL	first compound 2.145 µg/mL	first compound 4.29 µg/mL
partner 1 µg/mL	0.966	≥ 1	0.968
partner 2 µg/mL	0.996	≥ 1	0.976
partner 4 µg/mL	0.879	0.903	0.846

fitness, S. pneumoniae D39V [4], one replicate
Conditions	first compound 1.25 µg/mL	first compound 2.5 µg/mL	first compound 5 µg/mL
partner 1 µg/mL	0.884	0.91	≥ 1
partner 2 µg/mL	0.914	0.903	0.874
partner 4 µg/mL	0.742	0.717	0.809

CNC(C)C1CCC(N)C(OC2C(N)CC(N)C(OC3OCC(C)(O)C(NC)C3O)C2O)O1 (centres undefined) [Gentamicin] + CO[C@@H]1[C@@H](OC(N)=O)[C@@H](O)[C@H](Oc2ccc3c(O)c(NC(=O)c4ccc(O)c(CC=C(C)C)c4)c(=O)oc3c2C)OC1(C)C [Novobiocin]
main component drawn
Conditions	Bliss interaction score
B. subtilis 168 [2]	0.137
S. aureus DSM 20231	-0.0708
S. aureus Newman	0.0684
S. pneumoniae D39V [1]	0.0522

fitness, B. subtilis 168 [3]
Conditions	first compound 0.0625 µg/mL	first compound 0.125 µg/mL	first compound 0.25 µg/mL
partner 0.0125 µg/mL	0.915	–	0.0845
partner 0.025 µg/mL	0.938	0.692	0.0329
partner 0.05 µg/mL	0.998	0.705	–

fitness, B. subtilis 168 [3], one replicate
Conditions	partner 0.1 µg/mL	partner 0.125 µg/mL	partner 0.2 µg/mL	partner 0.25 µg/mL	partner 0.5 µg/mL
first compound 0.0625 µg/mL	≥ 1	0.907	≥ 1	0.987	0.515
first compound 0.125 µg/mL	0.946	0.501	0.978	0.302	0.111
first compound 0.25 µg/mL	0.152	0.056	0.476	0.0399	0.0406

Clc1ccc(COC(Cn2ccnc2)c2ccc(Cl)cc2Cl)c(Cl)c1 (centres undefined) [Miconazole] + Cn1nnc(-c2ccc(-c3ccc(N4C[C@H](CO)OC4=O)cc3F)cn2)n1 [Tedizolid]
Conditions	Bliss interaction score
B. subtilis 168 [2]	0.0402
S. aureus DSM 20231	0.0592
S. aureus Newman	0.0625
S. pneumoniae D39V [1]	-0.0671

fitness, S. pneumoniae D39V [4]
Conditions	first compound 1.073 µg/mL	first compound 1.25 µg/mL	first compound 2.145 µg/mL	first compound 2.5 µg/mL	first compound 4.29 µg/mL	first compound 5 µg/mL
partner 0.03125 µg/mL	–	0.96	–	0.97	–	0.925
partner 0.0625 µg/mL	–	0.968	–	0.929	–	0.934
partner 0.125 µg/mL	0.872	0.797	0.937	0.797	0.943	0.746
partner 0.25 µg/mL	0.729	–	0.778	–	0.829	–
partner 0.5 µg/mL	0.413	–	0.402	–	0.489	–

CNC(C)C1CCC(N)C(OC2C(N)CC(N)C(OC3OCC(C)(O)C(NC)C3O)C2O)O1 (centres undefined) [Gentamicin] + Clc1ccc(COC(Cn2ccnc2)c2ccc(Cl)cc2Cl)c(Cl)c1 [Miconazole]
main component drawn
Conditions	Bliss interaction score
B. subtilis 168 [2]	-0.151
S. aureus DSM 20231	0.102
S. aureus Newman	0.0417
S. pneumoniae D39V [1]	0.0753

fitness, S. pneumoniae D39V [4], main component drawn
Conditions	partner 1.073 µg/mL	partner 1.25 µg/mL	partner 2.145 µg/mL	partner 2.5 µg/mL	partner 4.29 µg/mL	partner 5 µg/mL
first compound 2 µg/mL	≥ 1	0.915	≥ 1	0.901	0.912	0.905
first compound 4 µg/mL	≥ 1	0.884	0.998	0.893	0.987	0.911
first compound 8 µg/mL	0.996	0.838	≥ 1	0.868	0.913	0.875

CC[C@H]1OC(=O)[C@H](C)[C@@H](O[C@H]2C[C@@](C)(OC)[C@@H](O)[C@H](C)O2)[C@H](C)[C@@H](O[C@@H]2O[C@H](C)C[C@H](N(C)C)[C@H]2O)[C@](C)(O)C[C@@H](C)CN(C)[C@H](C)[C@@H](O)[C@]1(C)O [Azithromycin] + CCC(C)C1C(=O)NC(=C)C(=O)NC(C(=O)NC(CSCC(C(=O)N1)NC(=O)/C(=C/C)/NC(=O)C(C(C)CC)N)C(=O)NC2C(SCC(NC(=O)CNC(=O)C3CCCN3C2=O)C(=O)NC(CCCCN)C(=O)NC4C(SCC(NC(=O)CNC(=O)C(NC(=O)C(NC(=O)C(NC(=O)CNC4=O)C)CC(C)C)CCSC)C(=O)NC(CC(=O)N)C(=O)NC(CCSC)C(=O)NC(CCCCN)C(=O)NC5C(SCC6C(=O)NC(C(=O)NC(CSC(C(C(=O)N6)NC(=O)C(NC5=O)C)C)C(=O)NC(CO)C(=O)NC(C(C)CC)C(=O)NC(CC7=CN=CN7)C(=O)NC(C(C)C)C(=O)NC(=C)C(=O)NC(CCCCN)C(=O)O)CC8=CN=CN8)C)C)C)CC(C)C [Nisin]
main component drawn
Conditions	Bliss interaction score
B. subtilis 168 [2]	0.0397
S. aureus DSM 20231	-0.195
S. aureus Newman	-0.113
S. pneumoniae D39V [1]	-0.0414

fitness, B. subtilis 168 [3]
Conditions	partner 0.5 µg/mL	partner 1 µg/mL	partner 2 µg/mL
first compound 0.25 µg/mL	0.904	0.837	0.724
first compound 0.5 µg/mL	0.862	0.805	0.636

fitness, B. subtilis 168 [3], one replicate
Conditions	partner 1.25 µg/mL	partner 1.6 µg/mL	partner 2.5 µg/mL	partner 3.2 µg/mL	partner 4 µg/mL	partner 5 µg/mL	partner 6.4 µg/mL	partner 8 µg/mL	partner 16 µg/mL
first compound 0.25 µg/mL	–	–	–	–	0.0321	–	–	0.0145	0.0145
first compound 0.5 µg/mL	0.889	0.611	0.0285	0.028	0.0372	0.0256	0.0317	0.0317	0.0189
first compound 1 µg/mL	0.844	0.038	0.415	0.0169	0.0347	0.0235	0.0188	0.0359	0.0271
first compound 2 µg/mL	0.358	0.023	0.0636	0.0193	–	0.0032	0.0113	–	–
